The OligoGym collection
After the bases stand the sugars from the 5' end (letter, count) and the backbone: PS all phosphorothioate, else s phosphorothioate and o phosphodiester by linkage. Methylation of C is not given here. e = 2'-O-(2-methoxyethyl) (MOE); k = constrained ethyl (cEt); d = 2'-deoxy (DNA); m = 2'-O-methyl

Target: HSD17B13
Details: ASO, HepaRG

Sequence | target mRNA inhibition (1 µM) | also measured
TGCTGCATTAATGCCA (sugars k3 d9 k3 e1, PS) | 6% | –
TACTUGAACAGTCTTA (sugars k3 d1 m1 d8 k3, PS) | 38% | –
ATAGAGGGTCCACTTT (sugars k3 d10 k3, PS) | 21% | –
CTTTGCAGCATTGATT (sugars k3 d1 m1 d8 k3, PS) | 19% | –
CTAAACTAGTGGTAAT (sugars k3 d10 k3, PS) | 23% | –
AATAATGGGCAGAGCT (sugars k3 d10 k3, PS) | 43% | –
CCTGTGTTAGCTTTAA (sugars k3 d9 k3 e1, PS) | 66% | –
GATTGGAATGCTACTT (sugars kkdddddddddkekek, PS) | 53% | –
GATTCGAAACTATTCA (sugars k3 d10 k3, PS) | 57% | –
CAACTATGTAATAGGC (sugars k3 d10 k3, PS) | 79% | target mRNA inhibition (0.02 µM): 1%; target mRNA inhibition (0.078 µM): 17%; target mRNA inhibition (0.313 µM): 42%; target mRNA inhibition (1.25 µM): 73%; target mRNA inhibition (5 µM): 92%
ATTAATGCCACCCTAC (sugars k3 d10 k3, PS) | 6% | –
ATATATCCTTCCTTGG (sugars k3 d10 k3, PS) | 20% | –
AACAGTCTTAAACCTT (sugars kkdddddddddkekek, PS) | 37% | –
GACTTGCCTCATTTAG (sugars k3 d10 k3, PS) | 69% | –
GGTTGAGATAAAGCTG (sugars kkdddddddddkekek, PS) | 60% | –
CTCCCACAAAACTAAC (sugars k3 d10 k3, PS) | 13% | –
AAAAGGTTATCATGGG (sugars k3 d10 k3, PS) | 49% | –
TTTAGGATTAATTCCC (sugars k3 d10 k3, PS) | 16% | –
AGTGCCAAACCAATGT (sugars k3 d1 m1 d8 k3, PS) | 24% | –
TTTCTTATGTAATAGC (sugars k3 d9 k3 e1, PS) | 60% | –
CCTAAATTCAAAGACC (sugars k3 d10 k3, PS) | 64% | –
CTTATGAAGTTAGTAT (sugars k3 d10 k3, PS) | 43% | –
TTCGAAACTATTCATA (sugars k3 d10 k3, PS) | 44% | –
TAAGAGGCATGAAAGG (sugars k3 d9 k3 e1, PS) | 36% | –
ACATUGCAGTTATTAG (sugars k3 d1 m1 d8 k3, PS) | 26% | –
GGAGTACTTCACAATT (sugars k3 d10 k3, PS) | 79% | target mRNA inhibition (0.02 µM): 20%; target mRNA inhibition (0.078 µM): 25%; target mRNA inhibition (0.313 µM): 42%; target mRNA inhibition (1.25 µM): 75%; target mRNA inhibition (5 µM): 87%

Sequence | target mRNA inhibition (1 µM) | also measured
CTGCAACTTTTAGTCA (sugars k3 d10 k3, PS) | 21% | –
GCCTAGTTTTCGGCAC (sugars k3 d10 k3, PS) | 12% | –
TTGTCTAAACATCTCT (sugars k3 d10 k3, PS) | 60% | –
CTTGATTAAGGCAAAG (sugars k3 d10 k3, PS) | 38% | –
CCAACCAAACTTCCAG (sugars kkdddddddddkekek, PS) | 15% | –
TCTCCAATACAGGCCA (sugars k3 d10 k3, PS) | 21% | –
ACTGCTGCTAGTGCCA (sugars k3 d10 k3, PS) | 47% | –
TGAAGATTAGTTAACC (sugars k3 d10 k3, PS) | 21% | –
TTCTGTAGGACTCTGC (sugars k3 d10 k3, PS) | 72% | –
ATCAAGACATTCTAGC (sugars k3 d10 k3, PS) | 61% | –
ATCTCTGGGACCAAGG (sugars k3 d9 k3 e1, PS) | 53% | –
GCTTAGTTCTTAATTA (sugars k3 d10 k3, PS) | 28% | –
GTTTCAAAAAGGCCCA (sugars k3 d10 k3, PS) | 39% | –
TTTAAAATAGAGTCGG (sugars kkdddddddddkekek, PS) | 43% | –
ACAAGTAAGGTAAAGT (sugars k3 d10 k3, PS) | 38% | –
TATTATGAGGATCTGG (sugars k3 d10 k3, PS) | 44% | –
AGGAAATATAGAGGGT (sugars k3 d10 k3, PS) | 54% | –
CAATACAGGCCATAAT (sugars k3 d10 k3, PS) | 0% | –
CTTATGTAATAGCCAG (sugars k3 d10 k3, PS) | 74% | –
CAATAATAATGGGCAG (sugars k3 d10 k3, PS) | 43% | –
CCCGAATTATTTCTTG (sugars k3 d10 k3, PS) | 34% | –
GAGCCTAAAATTGTCT (sugars k3 d10 k3, PS) | 49% | –
CAGGTTGAGATAAAGC (sugars k3 d10 k3, PS) | 49% | –
GATCATTCCTGCTAGT (sugars k3 d10 k3, PS) | 35% | –
CTCTAAGTTAGCCCCC (sugars k3 d10 k3, PS) | 38% | –
TACACCACACTAATGA (sugars k3 d10 k3, PS) | 26% | –

Sequence | target mRNA inhibition (1 µM) | also measured
ATTATTTCTTGCGAGA (sugars k3 d10 k3, PS) | 60% | –
TACGACTTCATCTGTC (sugars k3 d10 k3, PS) | 29% | –
GATGAGGTAAGGAATC (sugars k3 d10 k3, PS) | 0% | –
TAACCATAGGACATGG (sugars k3 d10 k3, PS) | 70% | –
AGGTUGAGATAAAGCT (sugars k3 d1 m1 d8 k3, PS) | 58% | –
CTAGTGCCAAACCAAT (sugars k3 d10 k3, PS) | 49% | –
CTGTCTCCAATACAGG (sugars k3 d10 k3, PS) | 29% | –
TGATTTAGTTGGTAGC (sugars k3 d10 k3, PS) | 79% | target mRNA inhibition (0.02 µM): 7%; target mRNA inhibition (0.078 µM): 43%; target mRNA inhibition (0.313 µM): 73%; target mRNA inhibition (1.25 µM): 84%; target mRNA inhibition (5 µM): 94%
TGCAAAATGTGATGCC (sugars k3 d10 k3, PS) | 69% | –
GATTAAGCAGAATTGT (sugars k3 d10 k3, PS) | 37% | –
AACCTTGAATGAGTGG (sugars k3 d10 k3, PS) | 50% | –
TCTGTATAGCTGCATT (sugars k3 d10 k3, PS) | 47% | –
TGTGTTCTTGTTGATA (sugars k3 d9 k3 e1, PS) | 65% | –
TGCTAGTGCCAAACCA (sugars kkdddddddddkekek, PS) | 58% | –
ATAACTGAGCTAGACA (sugars k3 d10 k3, PS) | 71% | –
ACTATCAGAACAGTTC (sugars k3 d10 k3, PS) | 62% | –
GTATCTTAAGAGAAGG (sugars k3 d10 k3, PS) | 30% | –
CCTAATAACTACATGA (sugars k3 d10 k3, PS) | 3% | –
ATGTGAAGAGCTGGTA (sugars k3 d10 k3, PS) | 42% | –
ACATAGGCTTAGTGTA (sugars k3 d10 k3, PS) | 0% | –
GCCAAGCTTTGTGTCA (sugars k3 d10 k3, PS) | 64% | –
CTGCTGCTAGTGCCAA (sugars k3 d10 k3, PS) | 57% | –
ATCCTATATACATCCA (sugars kkdddddddddkekek, PS) | 65% | –
CATAATAATAGCTCTA (sugars k3 d9 k3 e1, PS) | 55% | –
TGATACACCAATGCAG (sugars k3 d9 k3 e1, PS) | 58% | –
GAGACAAGAGTTCTTG (sugars k3 d10 k3, PS) | 19% | –

Sequence | target mRNA inhibition (1 µM) | also measured
GATTGCACAAACCACA (sugars k3 d10 k3, PS) | 73% | –
ATATGTCCAGGTTGAG (sugars k3 d1 m1 d8 k3, PS) | 48% | –
GATACCTGAAAAGCCC (sugars k3 d10 k3, PS) | 49% | –
AATTTTCAGATCCCGT (sugars k3 d10 k3, PS) | 74% | –
TACTTACCAATATGGG (sugars k3 d10 k3, PS) | 13% | –
CTTGATCTCTTAGCTG (sugars kkdddddddddkekek, PS) | 49% | –
CGTCAAAAACCGTCAA (sugars k3 d10 k3, PS) | 20% | –
GACTGCTGCTAGTGCC (sugars k3 d10 k3, PS) | 67% | –
GAATTTTTGAGGTTGG (sugars k3 d10 k3, PS) | 77% | target mRNA inhibition (0.02 µM): 17%; target mRNA inhibition (0.078 µM): 26%; target mRNA inhibition (0.313 µM): 62%; target mRNA inhibition (1.25 µM): 92%; target mRNA inhibition (5 µM): 91%
GATTAATCTTGATGCT (sugars k3 d10 k3, PS) | 26% | –
GACTGCTGCTAGTGCC (sugars kkdddddddddkekek, PS) | 35% | –
CAAATTCATAAGTAGT (sugars k3 d10 k3, PS) | 76% | –
CAGTATCCCCTCAAAT (sugars k3 d10 k3, PS) | 53% | –
ACTCTATAATAAGGTA (sugars k3 d10 k3, PS) | 42% | –
TCCTGTGTTAGCTTTA (sugars kkdddddddddkekek, PS) | 79% | target mRNA inhibition (0.02 µM): 18%; target mRNA inhibition (0.078 µM): 29%; target mRNA inhibition (0.313 µM): 54%; target mRNA inhibition (1.25 µM): 71%; target mRNA inhibition (5 µM): 86%
TATTGATATACGATGG (sugars k3 d10 k3, PS) | 16% | –
CTTAGTTCATTGTGAT (sugars k3 d10 k3, PS) | 69% | –
TGCAGAAATTCACCTT (sugars k3 d10 k3, PS) | 54% | –
CTTAAACCTTCCCTGT (sugars kkdddddddddkekek, PS) | 36% | –
CTACACTAATATTGAG (sugars k3 d9 k3 e1, PS) | 10% | –
CTTCACCTGATTTAGA (sugars k3 d10 k3, PS) | 7% | –
CCTCCACACCGCGCTT (sugars k3 d10 k3, PS) | 16% | –
GTCGGTCACCTTTCAT (sugars kkdddddddddkekek, PS) | 57% | –
